In brackets after ≈: the same amount, converted by molar mass.
What was measured:
[1] = tested on: MCF-7 human breast carcinoma cell line; assay: In vitro anti-proliferative assay, sulforhodamine-B; assay type: cell-based; details: single concentration 100 μg mL^−1, 48 h, SRB; mean ± SD
[2] = tested on: HEp-2 human laryngeal carcinoma cell line; assay: In vitro anti-proliferative assay, SRB method, HEp-2; assay type: cell-based; details: for IC50: Homo sapiens, HEp-2, 48 h, read-out: IC50 against HEp-2; for HEp-2 (% inhibition): single concentration 100 μg mL^−1, 48 h, SRB, mean ± SD
[3] = target: CDK2/cyclin A (Homo sapiens, UniProt P24941); assay type: biochemical
[4] = target: GSK3β (Homo sapiens, UniProt P49841); assay type: biochemical
[5] = tested on: Vero normal African green monkey kidney cell line; assay: In vitro anti-proliferative assay, SRB method, normal Vero cells; assay type: cell-based; details: single concentration 100 μg mL^−1, 48 h, mean ± SD
[6] = tested on: HEp-2 cells; assay: Total nitrate/nitrite; assay type: cell-based, human; details: HEp-2, treated with IC50 for 48 h
[7] = tested on: HEp-2 cells; assay: Reduced glutathione; assay type: cell-based, human; details: HEp-2, treated with IC50 for 48 h
[8] = tested on: HepG2 human hepatocellular carcinoma cell line; assay: In vitro anti-proliferative assay, SRB method, HepG2; assay type: cell-based
[9] = tested on: HepG2 cells; assay: Total nitrate/nitrite; assay type: cell-based, human; details: HepG2, treated with IC50 for 48 h
[10] = tested on: HepG2 cells; assay: Reduced glutathione; assay type: cell-based, human; details: HepG2, treated with IC50 for 48 h
[11] = tested on: HepG2 cells; assay: Cell cycle analysis by flow cytometry; assay type: cell-based, human; details: HepG2, 9.5 μg mL^−1 (IC50), 24 h
[12] = tested on: HepG2 cells; assay: Apoptosis detection, annexin V-FITC/PI flow cytometry; assay type: cell-based, human; details: HepG2, 9.5 μg mL^−1 (IC50), 24 h; DMSO control 1.18%

GSK3β, sequence (P49841 whole entry): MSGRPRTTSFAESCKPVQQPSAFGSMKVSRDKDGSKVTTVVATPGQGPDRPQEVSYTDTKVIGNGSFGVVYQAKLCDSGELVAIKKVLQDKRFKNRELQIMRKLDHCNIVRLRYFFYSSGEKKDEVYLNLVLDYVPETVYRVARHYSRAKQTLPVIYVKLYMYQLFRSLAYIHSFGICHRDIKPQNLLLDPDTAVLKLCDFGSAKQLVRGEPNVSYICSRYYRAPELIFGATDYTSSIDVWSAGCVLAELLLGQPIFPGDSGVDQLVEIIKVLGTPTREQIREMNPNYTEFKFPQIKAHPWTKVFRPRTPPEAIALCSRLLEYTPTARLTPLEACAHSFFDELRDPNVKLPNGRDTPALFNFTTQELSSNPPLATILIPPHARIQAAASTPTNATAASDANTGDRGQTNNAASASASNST

CCN1C(=O)/C(=C\c2ccc(F)cc2)S/C1=N/N=C(\C)c1ccccn1 [9b, (E)-3-Ethyl-5-((E)-4-fluorobenzylidene)-2-(((E)-1-(pyridin-2-yl)ethylidene)hydrazono)thiazolidin-4-one]
MCF-7 (% inhibition) [1]: 70.58 ± 1.8%

C/C(=N\N=C1/NC(=O)/C(=C\c2ccc(Cl)cc2)S1)c1ccccn1 [10a, (E)-5-((E)-4-Chlorobenzylidene)-2-(((E)-1-(pyridin-2-yl)ethylidene)hydrazono)thiazolidin-4-one]
MCF-7 (% inhibition) [1]: 71.32 ± 3.4%

C/C(=N\NC(N)=S)c1ccccn1 [1a, (E)-2-(1-(pyridin-2-yl)ethylidene)hydrazine-1-carbothioamide]
IC50 [2]: 7.5 µg/mL (≈ 38.6 µM) | HEp-2 (% inhibition) [2]: 79.91 ± 0.7% | IC50 [3]: 16.7 µM | Roscovitine inhibitory activity against CDK2/cyclin A relative to the compound ([3]; from IC50 values of Table 2): more than 3.5 times | IC50 [4]: 2.25 µM | GSK3β inhibitory activity compared with CHIR-99021 ([4]; from IC50 values of Table 2): the reference drug showing nearly six times its inhibitory activity

CCn1c(C)c(C(C)=O)s/c1=N/N=C(\C)c1ccccn1 [3b, 1-((E)-3-Ethyl-4-methyl-2-(((E)-1-(pyridin-2-yl)ethylidene)hydrazono)-2,3-dihydrothiazol-5-yl)ethan-1-one]
MCF-7 (% inhibition) [1]: 73.52 ± 1.6%

CC(=O)C1S/C(=N/N=C(\C)c2ccccn2)NC1=O (stereo not shown) [8a, (E)-5-Acetyl-2-(((E)-1-(pyridin-2-yl)ethylidene)hydrazono)thiazolidin-4-one]
IC50 [2]: 5.9 µg/mL (≈ 21.4 µM) | HEp-2 (% inhibition) [2]: 78.67 ± 2.5% | Vero (% inhibition) [5]: 44.24 ± 2.8% | IC50 [3]: 2.44 µM | Stronger inhibitory activity against CDK2/cyclin A compared with roscovitine ([3]; from IC50 values of Table 2): 1.3 fold | IC50 [4]: 0.485 µM | Increase of NOx level compared to untreated cells [6]: 19% | Reduction in GSH content compared to untreated cells [7]: 14%

C/C(=N\N=c1/[nH]c(C)c(/N=N/c2ccc(C)cc2)s1)c1ccccn1 [13a, (E)-4-Methyl-2-(((E)-1-(pyridin-2-yl)ethylidene)hydrazono)-5-((E)-p-tolyldiazenyl)-2,3-dihydrothiazole]
IC50 ([8]; Homo sapiens, HepG2, 48 h, read-out: IC50 against HepG2): 9.5 µg/mL (≈ 27.1 µM) | HepG2 (% inhibition) ([8]; single concentration 100 μg mL^−1, 48 h, SRB, mean ± SD): 76.56 ± 1.3% | Vero (% inhibition) [5]: 41.81 ± 2.3% | IC50 [3]: 1.13 µM | Stronger inhibitory activity against CDK2/cyclin A compared with roscovitine ([3]; from IC50 values of Table 2): 2.2 fold | IC50 [4]: 0.337 µM | Increase of NOx level compared to untreated cells [9]: 25% | Reduction in GSH level compared to untreated cells [10]: 33% | Cells in G0–G1 phase (%DIP G1) [11]: 59.62% | Necrotic cells [12]: 3.25%

C/C(=N\N=C1/NC(=O)C(C)S1)c1ccccn1 (stereo not shown) [7a, (E)-5-Methyl-2-(((E)-1-(pyridin-2-yl)ethylidene)hydrazono)thiazolidin-4-one]
MCF-7 (% inhibition) [1]: 72.79 ± 1.3%

Source: PMC11456921 (RSC Advances, 2024)
